# According to US20250195502A1, “APPLICATION OF TETRACYCLIC COMPOUND IN TREATMENT OF TUMORS” (SHANGHAI SHIJIANG BIOTECHNOLOGY CO., LTD, priority 2022, published 2025):
# Where two headings read alike, the source gives them in different places.
# Assays:
# Assay type in all cases: cell-based
# [1] = system: ov-NNMT NCI-H82 cell (NNMT protein-overexpressing NCI-H82); experiment: Cell viability assay (Promega CellTiter-Glo), inhibitory effect on ov-NNMT NCI-H82 cell; conditions: Homo sapiens
# Method in brief: (§1)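 Viability measured by CellTiter-Glo in three NCI-H82 variants: empty-vector control, viral NNMT overexpression, and viral shRNA DNMT1 knockdown, each checked by Western blot.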
# [2] = system: MDA-MB-453 (breast cancer cell); experiment: Cell viability assay (Promega CellTiter-Glo), inhibitory effect on MDA-MB-453; conditions: Homo sapiens, 72 h, 3 days of culture
# Method in brief: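 IC50 comes from ATP-based CellTiter-Glo viability measured after 3 days of exposure to graded compound concentrations. Cultures were kept in L-15 medium containing 10% fetal bovine serum.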
# [3] = system: CFPAC-1 (human pancreatic cancer cell); experiment: Cell viability assay (Promega CellTiter-Glo), inhibitory effect on CFPAC-1; conditions: 72 h, 3 days of culture
# Method in brief: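 Viability readout via ATP content (CellTiter-Glo) after 3-day exposure to gradient-diluted compounds; IC50 reported. Cells: CFPAC-1, grown in IMDM plus 10% fetal bovine serum.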
# [4] = system: D341 Med (cerebellar medulloblastoma cell); experiment: Cell viability assay (Promega CellTiter-Glo), inhibitory effect on D341 Med; conditions: Homo sapiens, 72 h, 3 days of culture, read-out: inhibitory effect on brain cell line D341 Med (IC50)
# Method in brief: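 D341 Med cells grown in EMEM with 20% FBS (+P/S) were treated with serially diluted compounds after passage. Viability after 3 days of culture was read as intracellular ATP by CellTiter-Glo luminescence, and IC50 was derived.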
# [5] = system: SW48 (human colon adenocarcinoma cell); experiment: Cell viability assay (Promega CellTiter-Glo), inhibitory effect on SW48; conditions: 72 h, 3 days of culture
# Method in brief: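 IC50 derived from CellTiter-Glo ATP luminescence after 3-day culture with a compound dilution series; cells kept in Leibovitz's L-15 plus 10% fetal bovine serum.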
# [6] = system: G-401 (human renal carcinoma Wilms cell); experiment: Cell viability assay (Promega CellTiter-Glo), inhibitory effect on G-401; conditions: 72 h, 3 days of culture
# Method in brief: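 IC50 comes from luminescent ATP-based viability measured after 3 days of exposure to serially diluted compound. Cultures were kept in McCoy's 5a medium containing 10% fetal bovine serum.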
# [7] = system: Kelly (brain neuroblastoma cell); experiment: Cell viability assay (Promega CellTiter-Glo), inhibitory effect on Kelly; conditions: Homo sapiens, 72 h, 3 days of culture, read-out: inhibitory effect on brain cell line Kelly (IC50)
# Method in brief: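 Kelly cells were cultured in RPMI1640 with 10% FBS and 2 mM glutamine, then treated with serially diluted compounds for 3 days. Viability was measured as intracellular ATP by CellTiter-Glo luminescence, and IC50 was derived from the dose-response.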
# [8] = system: NCI-H82 (human small cell lung cancer cell); experiment: Cell viability assay (Promega CellTiter-Glo), inhibitory effect on NCI-H82; conditions: 72 h, 3 days of culture
# Method in brief: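 After 3 days of culture with graded compound doses, ATP-based luminescence (CellTiter-Glo) gave the viability of human small cell lung cancer NCI-H82 cells, maintained in 10% FBS-containing RPMI1640. IC50 is the 50% inhibiting concentration.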
# [9] = system: sh-DNMT1 NCI-H82 cell (DNMT1 knocked down NCI-H82); experiment: Cell viability assay (Promega CellTiter-Glo), inhibitory effect on sh-DNMT1 NCI-H82 cell; conditions: Homo sapiens, NCI-H82 with DNMT1 knocked down by shRNA
# Method in brief: as §1
# [10] = system: Con-NCI-H82 cell (NCI-H82 transfected with empty virus vector); experiment: Cell viability assay (Promega CellTiter-Glo), inhibitory effect on Con-NCI-H82 cell; conditions: Homo sapiens; NCI-H82 transfected with empty virus vector (control); CellTiter-Glo; read-out: inhibitory effect on Con-NCI-H82 (IC50)
# Method in brief: as §1
# [11] = system: SF126 (human glioblastoma multiforme cell); experiment: Cell viability assay (Promega CellTiter-Glo), inhibitory effect on SF126
# Method in brief: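 IC50 reflects 50% loss of CellTiter-Glo ATP signal in SF126 glioblastoma cells. Cells were cultured in 10% FBS-containing EMEM and treated with serially diluted compound for 3 days.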
# [12] = system: GB-1 (human brain glioblastoma cell); experiment: Cell viability assay (Promega CellTiter-Glo), inhibitory effect on GB-1; conditions: 72 h, 3 days of culture
# Method in brief: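 Intracellular ATP measured by CellTiter-Glo served as the viability readout for IC50, taken 3 days after adding gradient-diluted compound. Cells were kept in 10% FBS-containing DMEM.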
# [13] = system: 786-O (clear cell renal cell adenocarcinoma cell); experiment: Cell viability assay (Promega CellTiter-Glo), inhibitory effect on 786-O; conditions: Homo sapiens, 786-0, 72 h, 3 days of culture
# Method in brief: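 Cell viability determined from ATP content (CellTiter-Glo) after 3-day exposure to compound dilution series, giving IC50. Cells: 786-O clear cell renal adenocarcinoma line in 10% FBS-containing RPMI1640 (+P/S).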
# [14] = system: NB-1 (brain neuroblastoma cell); experiment: Cell viability assay (Promega CellTiter-Glo), inhibitory effect on NB-1; conditions: Homo sapiens, 72 h, 3 days of culture, read-out: inhibitory effect on brain cell line NB-1 (IC50)
# Method in brief: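 NB-1 cells grown in L-15 medium with 10% FBS were exposed to serially diluted compounds for 3 days after passage. Viability was read as intracellular ATP by CellTiter-Glo luminescence. IC50 was taken as the concentration giving 50% inhibition.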
# [15] = 72 h, SF-126, 3 days of culture, Table 3, read-out: inhibitory effect on SF-126 (IC50)
# [16] = SF-126, 72 h, SF126, 3 days of culture, Table 4, read-out: inhibitory effect on brain cell line SF126 (IC50)
# [17] = Table 3, read-out: inhibitory effect on GB-1 (IC50)
# [18] = Table 4, read-out: inhibitory effect on brain cell line GB-1 (IC50)
SMILES,IC50 [1] [nM],IC50 [2] [nM],IC50 [3] [nM],IC50 [4] [nM],IC50 [5] [nM],IC50 [6] [nM],IC50 [7] [nM],IC50 [8] [nM],IC50 [9] [nM],IC50 [10] [nM],"IC50 [11, 15] [nM]","IC50 [11, 16] [nM]","IC50 [12, 17] [nM]","IC50 [12, 18] [nM]",IC50 [13] [nM],IC50 [14] [nM]
COc1ccc2c(Cc3ccc(C(C)C)cc3)c3[n+](cc2c1OC)CCc1cc2c(cc1-3)OCO2 [compound AB31789],850,310,4510,510,560,260,460,300,1050,300,3770,3770,3220,3220,2980,210
COc1ccc2cc3[n+](cc2c1OCC(=O)/C=C/c1ccc(C)cc1)CCc1cc2c(cc1-3)OCO2 [compound AB31790],1520,910,7820,260,420,820,270,430,1390,430,3260,3260,3730,3730,4750,230
COc1ccc2c(Cc3ccc(C(F)(F)F)cc3)c3[n+](cc2c1OC)CCc1cc2c(cc1-3)OCO2 [compound AB31805],4820,4110,> 50000,4800,1350,1840,4820,2110,6040,2110,> 50000,> 50000,> 50000,> 50000,25800,1030
COc1ccc2cc3[n+](cc2c1OCCCCCCNC(=O)OC(C)(C)C)CCc1cc2c(cc1-3)OCO2 [compound AB31808],860,280,7320,430,390,480,1050,330,1040,330,4580,4580,5560,5560,3900,60
COc1ccc(CCCc2c3[n+](cc4c(OC)c(OC)ccc24)CCc2cc4c(cc2-3)OCO4)cc1 [compound AB31809],1380,870,15500,1920,560,530,990,440,1860,440,10100,10100,11800,11800,7880,160
